Assay results: PMC2770256 (Journal of molecular biology, 2009)

Biological target: Ypt1p (His6-Ypt1p 1-180) (Saccharomyces cerevisiae, UniProt P01123)
Test: stopped-flow fluorescence
Type: binding
Details: pH 8.0, 25 °C, 5 mM MgCl2; labelled compound; nucleotide-free Ypt1p; association rate constant

Sequence of Ypt1p (His6-Ypt1p 1-180) (P01123 1-180): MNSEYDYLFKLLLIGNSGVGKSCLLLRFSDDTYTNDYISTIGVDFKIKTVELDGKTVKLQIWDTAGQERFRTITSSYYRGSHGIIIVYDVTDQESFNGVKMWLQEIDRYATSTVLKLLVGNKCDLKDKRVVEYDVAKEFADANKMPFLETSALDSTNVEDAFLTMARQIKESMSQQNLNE

Value: 0.096 (±0.004) μM^-1 s^-1
SMILES: CNc1ccccc1C(=O)O[C@H]1C[C@H](n2cnc3c(=O)[nH]c(N)nc32)O[C@@H]1COP(=O)(O)OP(=O)(O)O [mant-dGDP]
